# Several values for one entry are separate records, joined by “and”; a condition that tells them apart may be missing. Identical values can stand only once. Like-named read-outs stand apart in the source and are kept apart here.
# How the values were obtained:
# Human HDAC11 = target: T1, Human HDAC11 (Homo sapiens, UniProt Q96DB2); assay: Biochemical HDAC enzymatic assay, HDAC11; details: Table 2; incubation time 10 min
# T1 construct: Human HDAC11 (full length); GST tag (N); made in house; host or cells: baculovirus expression system
# T1 sequence (Q96DB2 1-347): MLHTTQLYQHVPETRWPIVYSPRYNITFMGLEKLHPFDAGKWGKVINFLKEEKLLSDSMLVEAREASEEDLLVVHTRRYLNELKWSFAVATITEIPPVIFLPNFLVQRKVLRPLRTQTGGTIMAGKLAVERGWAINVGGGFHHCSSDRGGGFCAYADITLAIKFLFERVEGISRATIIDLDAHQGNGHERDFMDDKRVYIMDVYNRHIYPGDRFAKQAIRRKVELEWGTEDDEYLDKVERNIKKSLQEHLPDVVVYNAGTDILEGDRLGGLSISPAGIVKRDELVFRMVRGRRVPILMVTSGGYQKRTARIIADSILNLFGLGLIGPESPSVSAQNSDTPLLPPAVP
# Experimental: Incubation time for HDAC1/2 is 120 min, and 10 min for other HDACs.
# Human HDAC11 (full length) (GenBank Accession No. NM_024827) with a N-terminal GST tag, MW=66 kDa, was expressed in a baculovirus expression system.
# • I. Compound handling: Testing compounds were dissolved in 100% DMSO to a specific concentration. The serial dilution was conducted by epMotion 5070 in DMSO. • II. HDAC reaction buffer: 50 mM Tris-HCl, pH8.0, 137 mM NaCl, 2.7 mM KCl, and 1 mM MgCl2, Added fresh: 1 mg/ml BSA, 1% DMSO. • III. […] Delivered 2× Substrate Mixture (Fluorogenic HDAC Substrate and co-factor ([…] of Nicotinamide adenine dinucleotide (NAD^+) in all Sirt assay) in all reaction wells to initiate the reaction. Spin and shake. • d. Incubated for 1-2 hr. at 30° C. with seal. • e. Added Developer with Trichostatin A (or TMP269 or NAD^+) to stop the reaction and to generate fluorescent color. • f. Fluorescence was read (excitatory, 360; emission, 460) using the EnVision Multilabel Plate Reader (Perkin Elmer) • g. Endpoint reading was taken for analysis after the development reaches plateau. • V. Data Analysis: The percentages of enzyme activity (relative to DMSO controls) and IC50 values were calculated using the GraphPad Prism 4 program based on a sigmoidal dose-response equation. […]
# [1] = Mouse plasma PK after oral administration; format: in vivo
# Experimental: (§1) In vivo PK (pharmacokinetics) studies were run at Scripps Florida DMPK Core facility. Mouse plasma PK data was obtained using Compound Example 4 (N-(2-amino-5-(thiophen-2-yl)phenyl)-6-(8-methyl-2-oxo-1-oxa-3,8-diazaspiro[4.5]decan-3-yl)nicotinamide)
# (§2) Dose: 1 mg/kg intravenous (IV) and 7 mg/kg oral dosage (PO)
# (§3) Formulation: 0.1 mg/mL IV and 1 mg/mL PO solution in 10/10/80 DMSO/Tween80/Water
# (§4) Mice Info: Male C57 Bl/6J
# [2] = Mouse plasma PK after IV administration; format: in vivo; details: for AUC(0-inf): read-out: AUCINF_obs (converted); for MRT inf: read-out: MRTINF_obs
# Experimental: as §1, §2, §3, §4
# [3] = Brain exposure experiments in mice; format: in vivo, mouse; details: 1 hour after exposure
# Experimental: Brain exposure experiments were performed wherein mice were exposed to Compound Example 4 at an IV dosage of 1 mg/kg (Table 5).
# [4] = mouse plasma, 7 mg/kg PO, Average
# [5] = mouse plasma, 7 mg/kg PO, individual mice, 7 mg/kg
# [6] = 1 mg/kg IV, individual mice, 1 mg/kg
# [7] = male, C57 Bl/6J, mouse, plasma, iv, 1 mg/kg, 1 mg/kg IV, Average
# [8] = male, C57 Bl/6J, mouse, plasma, iv, 1 mg/kg, 1 mg/kg IV, individual mice
# [9] = IV 1 mg/kg, individual mice (7, 8, 9), 1 mg/kg
structure (smiles),measurement,setting,value
"O=C(NO)c1ccc(CN2C(=O)c3ccccc3C23CCN(C2CC2)CC3)cc1 [Compound Example 12, 4-((1′-cyclopropyl-3-oxospiro[isoindoline-1,4′-piperidin]-2-yl)methyl)-N-hydroxybenzamide]",IC50,Human HDAC11,3.6 µM
"CN1CCC2(CC1)CN(c1ccc(C(=O)Nc3cc(-c4cccs4)ccc3N)cn1)C(=O)O2 [Example 4, N-(2-amino-5-(thiophen-2-yl)phenyl)-6-(8-methyl-2-oxo-1-oxa-3,8-diazaspiro[4.5]decan-3-yl)nicotinamide]",AUC,"[1]; male, C57 Bl/6J, 7 mg/kg, mouse plasma, oral dosing, read-out: AUC (area under curve)",~16 µM·h
same,AUC(0-t),"[1]; male, C57 Bl/6J, mouse, plasma, po, 7 mg/kg, mouse plasma, 7 mg/kg PO, Average",7380 ng·h/mL and 15.9 µM·h
same,AUC(0-inf),"[1]; male, C57 Bl/6J, mouse, plasma, po, 7 mg/kg, mouse plasma, 7 mg/kg PO, Average, read-out: AUCINF_obs (converted)",7860 ng·h/mL
same,Cmax,"[1]; male, C57 Bl/6J, mouse, plasma, po, 7 mg/kg, mouse plasma, 7 mg/kg PO, Average, read-out: Cmax",2490 ng/mL and 5.39 µM
same,half-life,"[1]; male, C57 Bl/6J, mouse, plasma, po, 7 mg/kg, mouse plasma, 7 mg/kg PO, Average, read-out: T1/2 (converted)",114 min
same,half-life,"[1]; male, C57 Bl/6J, mouse, plasma, po, 7 mg/kg, mouse plasma, 7 mg/kg PO, individual mice (Mouse-1 to Mouse-3), read-out: T1/2 (converted)",99 min
same,Cmax,"[1]; male, C57 Bl/6J, mouse, plasma, po, 7 mg/kg, mouse plasma, 7 mg/kg PO, individual mice, read-out: Cmax",3200 ng/mL and 6.91 µM
same,half-life,"[1]; male, C57 Bl/6J, mouse, plasma, po, 7 mg/kg, mouse plasma, oral dosing, read-out: half-life (converted)",114 min
same,bioavailability,"[1]; male, C57 Bl/6J, plasma, 7 mg/kg, mouse, oral dosing, read-out: bioavailability (% F)",31%
same,bioavailability,"[1]; male, C57 Bl/6J, plasma, mouse, 7 mg/kg PO vs 1 mg/kg IV, Average, read-out: % F",31%
same,Tmax,"[1]; male, C57 Bl/6J, mouse plasma, 7 mg/kg PO, individual mice",1 h
same,AUC (% Extrap),[1]; [4],6.54%
same,Cl_obs,[1]; [4],16.34 mL/min/kg
same,T1/2,"[1]; mouse plasma, 7 mg/kg PO, individual mice (Mouse-1 to Mouse-3), 7 mg/kg",2.25 h and 1.78 h
same,AUC (% Extrap),[1]; [5],5.20% and 9.47% and 4.97%
same,AUCINF_obs,[1]; [5],690882 ng·min/mL and 335315 ng·min/mL and 388640 ng·min/mL
same,AUClast,[1]; [5],654948 min*ng/mL and 303573 min*ng/mL and 369340 min*ng/mL and 23.58 μM.hr and 10.93 μM.hr and 13.30 μM.hr
same,Cl_obs,[1]; [5],10.13 mL/min/kg and 20.88 mL/min/kg and 18.01 mL/min/kg
same,Cmax,[1]; [5],1930 ng/mL and 2350 ng/mL
same,Cmax,"[1]; mouse plasma, 7 mg/kg PO, individual mice, 7 mg/kg, read-out: Cmax",4.17 µM and 5.08 µM
same,AUC (% Extrap),"[2]; 1 mg/kg IV, Average",1.08%
same,Cl_obs,"[2]; 1 mg/kg IV, Average",4.93 mL/min/kg
same,Vss_obs,"[2]; 1 mg/kg IV, Average",0.54 L/kg
same,T1/2,"[2]; 1 mg/kg IV, individual mice (Mouse-1 to Mouse-3), 1 mg/kg",1.33 h and 1.28 h
same,AUC (% Extrap),[2]; [6],0.30% and 1.04% and 1.89%
same,AUC last,[2]; [6],6.33 µM·h and 7.92 µM·h
same,AUCINF_obs,[2]; [6],177722 ng·min/mL and 224191 ng·min/mL
same,AUClast,[2]; [6],175879 ng·min/mL and 219951 ng·min/mL
same,Cl_obs,[2]; [6],4.70 mL/min/kg and 5.63 mL/min/kg and 4.46 mL/min/kg
same,Cmax,[2]; [6],2490 ng/mL and 2040 ng/mL
same,MRTINF_obs,[2]; [6],1.74 h and 1.97 h
same,Vss_obs,[2]; [6],0.50 L/kg and 0.59 L/kg and 0.53 L/kg
same,Cmax,"[2]; 1 mg/kg IV, individual mice, 1 mg/kg, read-out: Cmax",5.38 µM and 4.41 µM
same,clearance (in words),[2]; IV administration,low clearance
same,volume (in words),[2]; IV administration,low volume
same,Tmax,"[2]; male, C57 Bl/6J, 1 mg/kg IV, individual mice",4.8 min
same,AUC,"[2]; male, C57 Bl/6J, 1 mg/kg, IV administration",~7.3 µM·h
same,AUC(0-t),[2]; [7],3380 ng·h/mL and 7.3 µM·h
same,AUC(0-inf),[2]; [7],3420 ng·h/mL
same,Cmax,"[2]; male, C57 Bl/6J, mouse, plasma, iv, 1 mg/kg, 1 mg/kg IV, Average, read-out: Cmax",2030 ng/mL and 4.38 µM
same,MRT inf,[2]; [7],1.82 h
same,half-life,"[2]; male, C57 Bl/6J, mouse, plasma, iv, 1 mg/kg, 1 mg/kg IV, Average, read-out: T1/2 (converted)",69.6 min
same,AUC(0-t),[2]; [8],3540 ng·h/mL and 7.64 µM·h
same,half-life,"[2]; male, C57 Bl/6J, mouse, plasma, iv, 1 mg/kg, 1 mg/kg IV, individual mice (Mouse-1 to Mouse-3), read-out: T1/2 (converted)",51.6 min
same,AUC(0-inf),[2]; [8],3550 ng·h/mL
same,Cmax,"[2]; male, C57 Bl/6J, mouse, plasma, iv, 1 mg/kg, 1 mg/kg IV, individual mice, read-out: Cmax",1560 ng/mL and 3.37 µM
same,MRT inf,[2]; [8],1.76 h
same,half-life,"[2]; male, C57 Bl/6J, mouse, plasma, iv, 1 mg/kg, IV administration, read-out: half-life (T1/2) (converted)",72 min
same,brain penetration (in words),[3]; IV 1 mg/kg,very low brain penetration
same,Brain concentration,[3]; [9],61.9 ng/mL and 0 ng/mL and 73 ng/mL
same,Plasma concentration,[3]; [9],1030 ng/mL and 2.22 μM and 1620 ng/mL and 3.50 μM
same,concentration at 1 h,"[3]; IV 1 mg/kg, individual mice (7, 8, 9), 1 mg/kg, read-out: Brain concentration",0.13 µM and 0.00 µM and 0.16 µM
same,concentration at 1 h,"[3]; mouse, brain, iv, 1 mg/kg, Average, read-out: Brain concentration",67.5 ng/mL and 150 nM
same,concentration at 1 h,"[3]; mouse, plasma, iv, 1 mg/kg, Average, read-out: Plasma concentration",1440 ng/mL and 3.1 µM
same,concentration at 1 h,"[3]; mouse, plasma, iv, 1 mg/kg, individual mice (7, 8, 9), read-out: Plasma concentration",1660 ng/mL and 3.59 µM
"CN(C)C(=O)N1CCC2(CC1)c1ccccc1C(=O)N2Cc1ccc(C(=O)NO)cc1 [Compound Example 11, 2-(4-(hydroxycarbamoyl)benzyl)-N,N-dimethyl-3-oxospiro[isoindoline-1,4′-piperidine]-1′-carboxamide]",IC50,Human HDAC11,4.1 µM

# Source: patent publication US11155550B2, “Histone deacetylase inhibitors and methods of use thereof” (Reaction Biology Corp., priority 2018, dated 2021)
